The nature of data set [1]: Permeability across vinblastine-selected VB-Caco-2 cell layers. Conditions: human.
Data set [2] can be described thus: Permeability across primary rat brain endothelial cell-based triple co-culture BBB model (EPA).
Data set [3] in a line: Permeability across MDCK cell layers. It counts as in vitro ADME, canine. Conditions: dog, fluorescein 10 μg/ml, mean ± SD.
A short description of data set [4]: Permeability across MDCK-MDR1 cell layers. The data set is classed as in vitro ADME, canine. Conditions: dog, fluorescein 10 μg/ml, mean ± SD.
The nature of data set [5]: Permeability across hCMEC/D3 (D3) brain endothelial cell line. The data set is classed as in vitro ADME. Conditions: human, fluorescein 10 μg/ml, mean ± SD. How it is done: (§1) Cultures of human brain endothelial hCMEC/D3 cell line (≤passage number 35) were grown in MCDB 131 medium (Pan Biotech) supplemented with 5% FBS, GlutaMAX (100×, LifeTechnologies, Carlsbad, CA, USA), lipid supplement (100×, Life Technologies, Carlsbad, CA, USA), 10 μg/ml ascorbic acid, 550 nM hydrocortisone, 100 μg/ml heparin, 1 ng/ml basic fibroblast growth factor (bFGF, Roche, USA), 2.5 μg/ml insulin, 2.5 μg/ml transferrin, 2.5 ng/ml sodium selenite and 50 μg/ml gentamicin (Weksler et al., [2005]). For differentiation of this cell line (D3L group), the medium was supplemented with 10 mM lithium chloride (LiCl) at the first change of medium (Paolinelli et al., [2013]). For the three brain endothelial cell lines, we used culture media with very similar or identical composition to those that were originally described for their growth and maintenance.

Data set [6] can be described thus: Permeability across lithium-treated hCMEC/D3 (D3L) cells. It counts as in vitro ADME. Conditions: human, D3L (10 mM LiCl), fluorescein 10 μg/ml, mean ± SD. How it is done:
as §1

The nature of data set [7]: Permeability across Caco-2 epithelial cell layers. It counts as in vitro ADME. The following applies: human, CaCo2, fluorescein 10 μg/ml, mean ± SD.
The nature of data set [8]: Permeability across GP8 brain endothelial cell line. The data set is classed as in vitro ADME. Conditions: rat, fluorescein 10 μg/ml, mean ± SD. The procedure:
GP8 rat brain endothelial cell line (provided by Dr. John Greenwood, University College London, UK) was cultured in DMEM/ HAM’s F-12, 15% PDS, 100 μg/ml heparin, 1 ng/ml bFGF and 50 μg/ml gentamicin.

Data set [9] can be described thus: Permeability across RBE4 brain endothelial cell line. The data set is classed as in vitro ADME. Conditions: rat, fluorescein 10 μg/ml, mean ± SD. The procedure: RBE4 rat brain endothelial cell line (provided by Dr. Pierre-Olivier Couraud, Institut Cochin, Paris, France) was grown in DMEM/ HAM’s F-12, supplemented with 10% FBS, 1 ng/ml bFGF and 50 μg/ml gentamicin.

The test system of data set [10] is VB-Caco-2 cells.
Data set [11] in a line: in vitro. The following applies: rat.
A short description of data set [12]: in vitro. Conditions: human, Caco-2.
Data set [13] relates to hCMEC/D3 cells. Kind of data set: Transendothelial electrical resistance (TEER) of D3 cells after lithium treatment. The following applies: 10 mM lithium chloride in medium; unpaired t-test, P < 0.0004. The data set is classed as cell-based, human. The procedure:
as §1
Transendothelial electrical resistance (TEER), reflecting the permeability of TJ for sodium ions, was measured by an EVOM voltohmmeter (World Precision Instruments, Sarasota, FL, USA) combined with STX-2 electrodes. Recorded resistance was expressed to the surface area of the filters (Ω × cm^2, Transwell inserts, […] membrane, 0.4 μm pore size, Corning Costar, USA). TEER of cell-free inserts (110 Ω × cm^2) was subtracted from the measured data.

SMILES strings stand for the structures. A value given as a limit tells only on which side of the number the result lay.

Here are results for twelve molecules from publication PMC5972182, “Comparison of a Rat Primary Cell-Based Blood-Brain Barrier Model With Epithelial and Brain Endothelial Cell Lines: Gene Expression and Drug Transport” (Frontiers in Molecular Neuroscience, 2018).

With `NCC(CC(=O)O)c1ccc(Cl)cc1` (centres unmarked) [Baclofen, baclofen], the Papp A→B stood at 0.31 ×10⁻⁶ cm/s in data set [1] and 16.3 ×10⁻⁶ cm/s in data set [2] (Wistar).

As for `O=C1OC2(c3ccc(O)cc3Oc3cc(O)ccc32)c2ccccc21` [Fluorescein, fluorescein], the Papp at 30 min, 10 µg/ml in data set [3] came to 2.8 ± 0.23 ×10⁻⁶ cm/s; in data set [4], 2.7 ± 0.31 ×10⁻⁶ cm/s; in [1], 0.3 ± 0.06 ×10⁻⁶ cm/s; in data set [5] it was 22.2 ± 3.71 ×10⁻⁶ cm/s; in [6], 19.3 ± 1.22 ×10⁻⁶ cm/s; in data set [7], 1.5 ± 0.28 ×10⁻⁶ cm/s. For the same molecule, the Papp at 30 min, 10 µg/ml was found to be 39.8 ± 3.51 ×10⁻⁶ cm/s in [8], 27.4 ± 1.63 ×10⁻⁶ cm/s in data set [9] and 2.1 ± 0.25 ×10⁻⁶ cm/s in data set [2] (Wistar).

Take `NCC1(CC(=O)O)CCCCC1` [Gabapentin, gabapentin]: in data set [10], the “Papp A-B” value is listed as “below the detection limit”. Besides, the Papp A→B was 2.98 ×10⁻⁶ cm/s in data set [11] (Wistar) and < 0.88 ×10⁻⁶ cm/s in data set [12]. Also, the results for the efflux ratio in data set [11] and in [12] were 0.92 and > 0.27, respectively.

Turning to `CO[C@H]1[C@H](O)[C@@H](CO)OC(O)[C@@H]1O` (stereo partly drawn) [Glucopyranose, 3-O-methyl-D-glucopyranose], the Papp A→B in [1] was 17.2 ×10⁻⁶ cm/s; in [2] (Wistar) it was < 65.7 ×10⁻⁶ cm/s.

As to `N[C@@H](Cc1ccc(O)c(O)c1)C(=O)O` [L-DOPA, 3,4-dihydroxy-L-phenylalanine], the efflux ratio at 10 μM in data set [2] was 0.4. The Papp A→B in [2] (Wistar) was determined as 73 ± 4 ×10⁻⁶ cm/s.

Take `CC[C@H](C)C(=O)O[C@H]1C[C@H](O)C=C2C=C[C@H](C)[C@H](CC[C@@H](O)C[C@@H](O)CC(=O)O)[C@H]21` [Pravastatin, pravastatin]: the Papp A→B in data set [1] stood at 0.19 ×10⁻⁶ cm/s; in [2] (Wistar), 7.61 ×10⁻⁶ cm/s.

In the case of `CCCN(CCC)S(=O)(=O)c1ccc(C(=O)O)cc1` [Probenecid, probenecid], the apical-to-basolateral permeability (Papp A→B) in [1] was 33.4 ×10⁻⁶ cm/s; in [2] (Wistar), 19 ×10⁻⁶ cm/s.

In the case of `CC(C)c1nc(N(C)S(C)(=O)=O)nc(-c2ccc(F)cc2)c1/C=C/[C@@H](O)C[C@@H](O)CC(=O)O` [Rosuvastatin, rosuvastatin], the figures for the Papp A→B in data set [1] and in [2] (Wistar) were 0.38 ×10⁻⁶ cm/s and 11.3 ×10⁻⁶ cm/s, respectively.

On to `O=C(O)c1ccccc1O` [Salicylic acid, salicylic acid], for which the results for the Papp A→B in [1] and in [2] (Wistar) were 7.6 ×10⁻⁶ cm/s and 4.78 ×10⁻⁶ cm/s, respectively.

On to `CCCC(CCC)C(=O)O` [Valproic acid, valproic acid], for which the Papp A→B in data set [1] worked out at 42.2 ×10⁻⁶ cm/s; in data set [2] (Wistar), 39.4 ×10⁻⁶ cm/s.

`[Cl-].[Li+]` [lithium, lithium chloride]: the “Effect on TEER of D3 cells” value in data set [13] is listed as “significantly elevated”.

With `Nc1c2c(nc3ccccc13)CCCC2` [tacrine], in data set [11] (Wistar), the Papp at 30 min, 0.5 µM worked out at 102 ± 27 ×10⁻⁶ cm/s.

In general, Papp A→B refers to how fast a substance crosses the layer from the apical side. Read a high Papp A→B as ready permeation. By Papp is commonly meant a coefficient for how fast a substance crosses the barrier. Low readings indicate poor permeation, high ones ready permeation. Usually efflux ratio stands for the permeability from basolateral to apical divided by that in the opposite direction, in the common usage.
